Reference: paper PMC6152192, “Novel Methylselenoesters as Antiproliferative Agents” (Molecules : A Journal of Synthetic Chemistry and Natural …, 2017)

How the values were obtained:
[1] = Methylselenol (CH3SeH) release by hydrolysis, quantified with DTNB (Ellman's reagent); assay type: physicochemical; details: 100 μM compound, 100 μM DTNB
Text: The new compounds were designed as CH3SeH precursors. The chemical features of the selenoester functional group facilitate a nucleophilic attack (i.e., with water) which would deliver the CH3SeH residue. In order to verify if CH3SeH could be released from the molecules by hydrolysis and if the rate differed among the compounds, the reaction of CH3SeH with 5,5′-dithiobis(2-nitrobenzoic acid) (DTNB or Ellman’s reagent) in aqueous environment was monitored. Briefly, when the disulfide bridge of DTNB reacts with thiols or selenols, 2-nitro-5-thiobenzoate (TNB^2−) is released and the mixed disulfide or selenylsulfide is formed. Each released CH3SeH produces one yellow TNB^2− species, whose absorbance can be quantified at 412 nm (Figure 2A).
A stock solution of the compounds was prepared in anhydrous DMSO (10 mM). The compounds were placed in a 96-well plate in a final concentration of 100 μM. Reaction started after adding 200 μL of an aqueous 100 mM Na2HPO4 buffer (1 mM EDTA, pH = 8), containing 100 μM of DTNB from a freshly prepared 10 mM ethanolic stock, which were added just before starting the reaction. The DTNB concentration was quantified with a cysteine standard curve ([…]). Blanks for the compounds in the absence of DTNB were also included as well as a blank to measure the slow but spontaneous hydrolysis of DTNB, which was further subtracted from all the values. Absorbance was read at 412 nm in a FLUOstar Omega microplate reader (BMG LabTech, Ortenberg, Germany). Results represent means of triplicate values ± SD.
Figure 2 CH3SeH release rates are dependent on the chemical features of the molecule. Released CH3SeH was quantified through reaction with Ellman’s reagent (DTNB). (A) Proposed reaction between CH3SeH and DTNB; (B) Quantification of TNB^2− at different times. The compounds were tested at 100 μM in 200 μL of 100 mM phosphate buffer (1 mM EDTA, pH = 8). DTNB concentration was also 100 μM. Absorbance was followed at 412 nm over 72 h. A cysteine standard curve (7.5–150 μM) was used to calculate the concentration of TNB^2− over time. Compounds showing less than 15% hydrolysis at 72 h are not included, except for compound 5 as example. Error bars indicate SD of triplicates.

[2] = tested on: 184B5 (non-malignant mammary epithelium); test: MTT viability assay, 184B5; assay type: cell-based; details: 184B5 non-malignant, 72 h, MTT; for CC50: read-out: LC50 (the source's name)
Protocol: (§1) The novel compounds were tested against a panel of different cancer lines: PC-3 (prostate adenocarcinoma), MCF7 (mammary adenocarcinoma), HTB-54 (lung carcinoma), K-562 (chronic myelogenous leukemia) and HT-29 (colorectal adenocarcinoma). Two non-malignant cell lines, BEAS-2B (bronchial epithelial) and 184B5 (mammary epithelial) were also included to evaluate the toxicity of the novel synthesized compounds. The antiproliferative activity was measured with the [3-(4,5-dimethylthiazol-2-yl)-2,5-diphenyltetrazolium bromide] (MTT) assay after 72 h treatment. Six concentrations ranging from 0.1 to 100 μM were tested. MSA is largely known as the main CH3SeH putative precursor and was therefore included as positive control. The following parameters were calculated: GI50 (concentration which reduces the growth by 50%), TGI (concentration completely inhibiting growth) and LC50 (concentration that kills 50% of the cells).
(§2) All cells were purchased from the American Type Culture Collection (ATCC, Barcelona, Spain). HT-29 (colorectal adenocarcinoma), HTB-54 (grade III lung carcinoma), MCF7 (mammary adenocarcinoma), PC-3 (grade IV prostate adenocarcinoma) and K-562 (chronic myelogenous leukemia) were cultured in RPMI (Gibco, Madrid, Spain), 10% FBS (Gibco), 100 units/mL penicillin and 100 μg/mL streptomycin (Gibco). BEAS-2B cell line (normal epithelial lung) was cultured in DMEM (Gibco), 10% FBS, 100 units/mL penicillin and 100 μg/mL streptomycin. 184B5 (normal mammary gland) cell line was cultured in DMEM:F12 supplemented with 5% FBS, 1 × ITS (Lonza, Barcelona, Spain), 100 nM hydrocortisone (Sigma-Aldrich), 2 mM sodium pyruvate (Lonza), 20 ng/mL EGF (Sigma-Aldrich), 0.3 nM trans-retinoic acid (Sigma-Aldrich), 100 units/mL penicillin and 100 µg/mL streptomycin. Cells were cultured at 37 °C under 5% CO2.
(§3) Cell viability after treatment was assessed by the well-known 3-(4,5-dimethyl-thiazol-2-yl)-2,5-diphenyltetrazolium bromide (MTT, Sigma-Aldrich) assay. Briefly, 10,000 cells were seeded in 96-well plates, treated and incubated for 72 h. Dilutions of the compounds in cell medium were freshly prepared from a 0.01 M stock in DMSO. After treatment, 50 μL of MTT solution in PBS (2 mg/mL) were added and cells were incubated for 4 h. Medium was removed and 150 μL of DMSO was added to dissolve the formed formazan crystals. Absorbance was read at 550 nm in a microplate absorbance reader (Sunrise, Tecan, Männedorf, Switzerland).

[3] = tested on: K-562 (chronic myelogenous leukemia); test: MTT viability assay, K-562; assay type: cell-based; details: K-562, 72 h, MTT; for CC50: read-out: LC50 (the source's name)
Protocol: as §1, §2, §3

[4] = tested on: glutathione-glutaredoxin (GSH-Grx) system; test: Glutaredoxin/glutathione assay (NADPH consumption); assay type: biochemical; details: 1 mM GSH, 200 μM NADPH, yeast GR, 1 μM hGrx1 when required, 45 min
Protocol: The assay was performed as previously described, with minor modifications and adapted for a 96-well plate. A mixture of 0.1 M Tris pH 8, 2 mM EDTA pH = 8, 0.1 mg/mL BSA, 1 mM GSH, 200 μM NADPH, and 0.008 OD/mL yeast GR was prepared (all reagents were purchased from Sigma-Aldrich). Reactions were performed with 1 μM hGrx1 (IMCO Corporation, Stockholm, Sweden) when corresponding and different concentrations of the compounds. A 100 μL mixture was added, and the final volume was adjusted to 110 μL per well. Consumption of NADPH was monitored at A340 on a VersaMax microplate reader (Molecular Devices) for 45 min.
Figure 7 Compounds 5 and 15 are substrates for thioredoxin reductase but not for the glutathione-glutaredoxin system. (A) NADPH consumption indicating reduction of compounds 5, 15 or MSA as control by thioredoxin reductase. The reaction mixture contained 100 nM TrxR1, 227 μM NADPH and the corresponding amount of compound in TE buffer (20 mM Tris, 2 mM EDTA pH = 8); (B) NADPH consumption indicating reduction of MSA by glutathione in the presence or absence of glutaredoxin. The reaction mixture contained the corresponding amount of compound, 0.1 M Tris, 2 mM EDTA pH = 8, 0.1 mg/mL BSA, 1 mM GSH, 200 μM NADPH, 0.008 OD/mL yeast GR and 1 μM hGrx1 when required. Only results for MSA are shown, as compounds 5 and 15 were not reduced.

Row | Substance | CH3SeH release / hydrolysis rate ([1]; 100 mM phosphate buffer, 1 mM EDTA, pH 8, followed over 72 h) | GI50 [2] | TGI [2] | CC50 [2] | GI50 [3] | TGI [3] | CC50 [3] | reduction by GSH in the presence or absence of glutaredoxin (NADPH consumption) [4] | hydrolysis at 72 h ([1]; phosphate buffer pH 8, 72 h)
1 | Dimethyl 2,5-furandicarboselenoate [Compound 15] | more sustained release | 3.5 ± 1.1 µM | 6.4 ± 0.5 µM | 9.2 ± 0.9 µM | 42 ± 3.8 µM | 70.6 ± 3.4 µM | 99.2 ± 5.3 µM | not reduced | –
2 | Methyl 3-chlorothiophen-2-carboselenoate [Compound 5] | – | 3.5 ± 0.4 µM | 5.9 ± 0.3 µM | 8.3 ± 0.2 µM | 38.7 ± 2.1 µM | 67.0 ± 1.9 µM | 95.2 ± 2.2 µM | not reduced | less than 15%
